Test results: publication PMC12749748, “Chemically-induced degradation of the endoplasmic-reticulum stress sensor IRE1 by a VHL-recruiting chimera” (Nature Communications, 2025)
Values belong to the molecule of their own block, whether it stands above or below them.

How the values were obtained:
IRE1 = IRE1 (Homo sapiens, UniProt O75460); assay: Endogenous IRE1 protein levels in AMO1 or H929 cells (immunoblot); format: cell-based; design: Immunoblot (IB) analysis of endogenous IRE1 depletion in AMO1 cells; endogenous in cells; host or cells: AMO1, KMS27, H929; settings: 1 µM, 4 hr
Procedure: (§1) Cells were lysed in buffer containing 20 mM HEPES 7.2, 150 mM NaCl, and 1% Triton X-100, supplemented with fresh protease and phosphatase inhibitors (Invitrogen, #78440), cleared by centrifugation at 12,000 × g for 10 min, and analyzed by BCA protein assay (Thermo Fisher Scientific, #23227). Equal protein amounts were loaded, separated by SDS-PAGE, electrotransferred to nitrocellulose membranes using the iBLOT2 system (Invitrogen), and blocked in 5% nonfat milk solution for 60 min. Membranes were probed with primary antibodies at 1:1000 dilution in 5% milk at 4 °C overnight. Signal was detected using appropriate horseradish peroxidase (HRP)-conjugated secondary antibodies at 1:10,000 in 5% milk at room temperature for 1–2 h. Bands were visualized by the Azure 600 western blot imaging system (Azure Biosystems). For in vitro ubiquitination assays performed with Me-Ub, bands were visualized by the Odyssey CLx Imager (LI‑COR) after incubating the blots with the IRDye 800CW (LI-COR) secondary antibodies at 1:10,000 in Intercept Blocking Buffer (LI-COR) at room temperature for 1–2 h.

KMS27 cells = assay: Incucyte cell confluency, KMS27 cells; format: cell-based; settings: KMS27 shIRE1 cells, titration
Procedure: (§2) For non-adherent AMO1, KMS27, and OPM2 cells, cells were plated at 5000 cells/well in ultra-low attachment (ULA) 96-well plates (Costar, #7007) and centrifuged at 600 × g for 5 min for spheroid formation. For adherent U2OS and Colo201 cells, 2000 cells/well were seeded in a clear flat-bottom 96-well plate (Costar, #3595). Treatments were added at the time of cell seeding, and cells were cultured in complete RPMI media to a final volume of 200 µL/well. Cultures were maintained at 37 °C throughout the duration of the experiment. Cell confluency was tracked using the Incucyte live-cell imaging system (Sartorius S3). Picture frames were captured every 4 h with a 4× objective, and cell confluency (%) from the total well area as a function of time was calculated using the Incucyte software (version 2023 A Rev2).

[1] = test system: IRE1-dependent or -independent cell lines; assay: Incucyte, IRE1-dependent or -independent cell lines together; format: cell-based
Procedure: as §2

OPM2 cells = assay: Incucyte cell confluency, OPM2 cells; format: cell-based; settings: OPM2 shIRE1 cells, titration
Procedure: as §2

AMO1 cells = assay: Incucyte cell confluency, AMO1 cells; format: cell-based
Procedure: as §2

IRE1:VHL [2] = biological target: T1, IRE1:VHL (Homo sapiens, UniProt O75460+P40337); assay: co-IP of endogenous VHL with endogenous IRE1 from AMO1 cells; format: cell-based; design: co-IP of endogenous VHL with endogenous IRE1 from AMO1 cells; endogenous in cells; host or cells: AMO1; settings: G5758 in excess of G6374
Procedure: as §1
IRE1.LD antibodies were conjugated to agarose beads using the AminoLink® Plus Immobilization Kit (Thermo Fisher, #44894). […]

IRE1:VHL [3] = biological target: T1, IRE1:VHL; assay: NanoBRET IRE1:VHL interaction, WT IRE1, HEK293T cells; format: cell-based; design: N2731 (HaloTag-VHL); host or cells: HEK293T; settings: HEK293T, 1 µM G6374 and a titration of G5758
Procedure: 8 × 10^5 293T cells per well were seeded in 6-well plates (Costar, #3516) and incubated at 37 °C, 5% CO2 for 6 h. A mixture of 0.2 µg ERN1 (IRE1)-NanoLuc Fusion Vector (Promega, NV1321), 2 µg HaloTag-VHL Fusion Vector (Promega, N2731), 6 µl FuGENE HD Transfection Reagent (Promega, E2311), and 100 µL Opti-MEM I reduced serum medium (Gibco, #31985062) per well was incubated at room temperature for 20 min before adding to cells. For expression of IRE1 mutants, site-directed mutagenesis was performed using the ERN1-NanoLuc Fusion Vector as the DNA template, and the transfection mixture was prepared in the same way as WT IRE1. After 18 h, cells from 6-well plates were trypsinized, resuspended in Opti-MEM I reduced serum medium, and reseeded into 96-well plates (Costar, #3917), with or without the addition of HaloTag NanoBRET 618 Ligand (Promega, G9801). […] After 2 h of G6374 treatment, NanoBRET Nano-Glo Substrate (Promega, N1571) was added to cells. The 96-well plates were imaged by GloMax Discover Microplate Reader (Promega, GM3000) with the default “BRET: NanoBRET 618” protocol (Donor: 450 BP; Acceptor: 600 LP; Integration: 0.3 s). Data analysis was performed according to the user manual.

WDR5 = test system: WDR5; design: method as in earlier work; settings: VHL:PROTAC:WDR5; cited from earlier work
BRD4 = test system: BRD4; design: method as in earlier work; settings: VHL:PROTAC:BRD4; cited from earlier work
VCB (VHL:EloC:EloB) = VCB (VHL:EloC:EloB) (Homo sapiens, UniProt P40337); assay: Surface plasmon resonance, binary interaction with VCB; format: binding; settings: SPR, immobilised VCB, 20 °C, 1 to 1 kinetic model
Procedure: All SPR experiments in this paper were recorded on a Biacore S200 instrument; all protein captures and data collection were at 20 °C.
For binary interactions with G6374: a Xantec SAHC 200 M (streptavidin) chip was inserted into the instrument and primed into running buffer [50 mM HEPES (pH 7.4), 150 mM NaCl, 0.001% Tween 20, 0.2% PEG3350, 0.25 mM TCEP, and 2% DMSO]. Biotinylated human IRE1.KR protein was captured on FC2 to 2-4000 RU, biotinylated VHL in complex with Elongin B (VHL/EloB) was captured on FC4 to 1-2000 RU, data were collected, and all referenced to FC1. Affinity for G6374 was measured using a titration series, injected from low to high with an 8-point, 2-fold dilution dose response with a top concentration of 0.5 μM in both single cycle (single cycle kinetics (SCK)) and multi cycle kinetics (MCK) formats. For MCK experiments, an association time of 45 s and a dissociation time of 200 s with a flow rate of 50 μL/min. For SCK experiments, an association time of 45 s and a dissociation time of 2000 s with a flow rate of 50 μL/min were used. All data were analyzed using Insight software (Cytiva) using a 1 to 1 kinetic binding model.

degradation of cellular IRE1 (IRE1): does not degrade cellular IRE1
SMILES: Cc1ncsc1-c1ccc(CNC(=O)[C@@H]2C[C@H](O)CN2C(=O)[C@@H](NC(=O)CCCCN2CCN(C3CCC(Nc4ncc5ccc(=O)n(C(C)C)c5n4)CC3)CC2)C(C)(C)C)cc1 (some centres unmarked) [G2642]
growth inhibition (cell confluency) (KMS27 cells): neither its epimer control G2642, nor the VHL ligand VH032, induced a concentration-dependent growth inhibition
anti-proliferative activity [1]: no anti-proliferative activity
growth inhibition (cell confluency) (OPM2 cells): neither its epimer control G2642, nor the VHL ligand VH032, induced a concentration-dependent growth inhibition
growth inhibition (cell confluency) (AMO1 cells; AMO1 shIRE1 cells, titration): neither its epimer control G2642, nor the VHL ligand VH032, induced a concentration-dependent growth inhibition

SMILES: O=S(=O)(Cc1ccccc1)Nc1c(F)cc(Oc2ncccc2-c2ccnc(N[C@@H]3CNC[C@@H](F)C3)n2)c(F)c1F [G5758, reference compound]
competition with G6374-induced IRE1:VHL association and IRE1 depletion (co-IP) (IRE1:VHL [2]): attenuated the induced association between IRE1 and VHL as well as the depletion of IRE1
disruption of G6374-induced IRE1:VHL interaction (NanoBRET) (IRE1:VHL [3]): could disrupt G6374-induced interaction between IRE1 and VHL

SMILES: Cc1ncsc1-c1ccc([C@H](C)NC(=O)[C@@H]2C[C@@H](O)CN2C(=O)[C@@H](NC(=O)CNC(=O)c2ccc(F)c(-c3ccc(N4C[C@@H](C)N(C)[C@@H](C)C4)c(NC(=O)c4c[nH]c(=O)cc4C(F)(F)F)c3)c2)C(C)(C)C)cc1 [MS67]
DC50 (WDR5): 3.7 nM
Dmax (WDR5): 94%

SMILES: CC(=O)c1cnc2ccc(-c3cc(Cl)c(O)c(Cl)c3)nc2c1N[C@H]1CC[C@H](CN(C)C)CC1 [OTSSP167, reference compound]
proliferation of AMO1 cells (AMO1 cells; at 3X the IC50 of OTSSP167): did not

ka (VCB (VHL:EloC:EloB)): 550000 M⁻¹ s⁻¹
kd (VCB (VHL:EloC:EloB)): 0.13 s⁻¹
SMILES: CC(=O)N[C@H](C(=O)N1C[C@H](O)C[C@H]1C(=O)NCc1ccc(-c2scnc2C)cc1)C(C)(C)C [VH032, reference compound]
